Laboratory results from BindingDB's records for doi:10.1021/acschembio.6b01133 (Merck & Co. Inc, 2017).
Several values for one entry are separate records, joined by “and”; a condition that tells them apart may be missing. Equal entries are not always repeated.

Experiments:
Assay in all cases: RNAP-Inhibition Assay
Details in all cases: 37 °C
[1] = biological target: DNA-directed RNA polymerase subunit beta (Escherichia coli (strain K12), UniProt P0A8V2)
Experimental: (§1) Fluorescence-detected RNAP inhibition assays in Tables 1 and 4 were performed using a DNA fragment containing the lacUV5 promoter as a template and the profluorescent ATP analog γ-[2′-(2-benzothiazoyl)-6′-hydroxybenzothiazole]-ATP(BBT-ATP, Jena Biosciences) as a substrate (methods as in ref 32). Fluorescence-detected RNAP inhibition assays in Figure 2C were performed essentially as described in refs 33 and 34. The assay used a proprietary circular single-stranded DNA as a template (Kool NC-45 Universal RNAP Template, Epicenter). […] A total of 5 μL of 20 nM recombinant RNAP in assay buffer [50 mM HEPES (pH = 8.0), 50 mM KCl, 4 mM MgCl2, 5% glycerol (v/v), 1 mM DTT, 0.1 mg mL−1 BSA, and 0.01% Triton X-100 (v/v)] was then added. After a 30 min incubation at RT, 5 μL of assay buffer solution containing 0.04 ng/μL DNA template and rNTPs (ATP, CTP, GTP, UTP; 600 μM each; Lucigen) was added to start the reaction. After incubation for 2 h at 37 °C, 70 μL of Quant-iT RiboGreen RNA Reagent [1:350 dilution in buffer containing 10 mM Tris-HCl (pH = 7.5) and 1 mM EDTA] was added to stop the reaction and develop the signal. The plate was read using a PheraStar Plus plate reader (BMG).

[2] = biological target: DNA-directed RNA polymerase subunit beta [H526D] (Escherichia coli, H526D)
Experimental: as §1

[3] = biological target: DNA-directed RNA polymerase subunit beta [S531L] (Escherichia coli, S531L)
Experimental: as §1

[4] = biological target: DNA-directed RNA polymerase subunit beta [D516V] (Escherichia coli, D516V)
Experimental: as §1

DNA-directed RNA polymerase subunit beta, sequence (P0A8V2 whole entry, the tested form may be a part): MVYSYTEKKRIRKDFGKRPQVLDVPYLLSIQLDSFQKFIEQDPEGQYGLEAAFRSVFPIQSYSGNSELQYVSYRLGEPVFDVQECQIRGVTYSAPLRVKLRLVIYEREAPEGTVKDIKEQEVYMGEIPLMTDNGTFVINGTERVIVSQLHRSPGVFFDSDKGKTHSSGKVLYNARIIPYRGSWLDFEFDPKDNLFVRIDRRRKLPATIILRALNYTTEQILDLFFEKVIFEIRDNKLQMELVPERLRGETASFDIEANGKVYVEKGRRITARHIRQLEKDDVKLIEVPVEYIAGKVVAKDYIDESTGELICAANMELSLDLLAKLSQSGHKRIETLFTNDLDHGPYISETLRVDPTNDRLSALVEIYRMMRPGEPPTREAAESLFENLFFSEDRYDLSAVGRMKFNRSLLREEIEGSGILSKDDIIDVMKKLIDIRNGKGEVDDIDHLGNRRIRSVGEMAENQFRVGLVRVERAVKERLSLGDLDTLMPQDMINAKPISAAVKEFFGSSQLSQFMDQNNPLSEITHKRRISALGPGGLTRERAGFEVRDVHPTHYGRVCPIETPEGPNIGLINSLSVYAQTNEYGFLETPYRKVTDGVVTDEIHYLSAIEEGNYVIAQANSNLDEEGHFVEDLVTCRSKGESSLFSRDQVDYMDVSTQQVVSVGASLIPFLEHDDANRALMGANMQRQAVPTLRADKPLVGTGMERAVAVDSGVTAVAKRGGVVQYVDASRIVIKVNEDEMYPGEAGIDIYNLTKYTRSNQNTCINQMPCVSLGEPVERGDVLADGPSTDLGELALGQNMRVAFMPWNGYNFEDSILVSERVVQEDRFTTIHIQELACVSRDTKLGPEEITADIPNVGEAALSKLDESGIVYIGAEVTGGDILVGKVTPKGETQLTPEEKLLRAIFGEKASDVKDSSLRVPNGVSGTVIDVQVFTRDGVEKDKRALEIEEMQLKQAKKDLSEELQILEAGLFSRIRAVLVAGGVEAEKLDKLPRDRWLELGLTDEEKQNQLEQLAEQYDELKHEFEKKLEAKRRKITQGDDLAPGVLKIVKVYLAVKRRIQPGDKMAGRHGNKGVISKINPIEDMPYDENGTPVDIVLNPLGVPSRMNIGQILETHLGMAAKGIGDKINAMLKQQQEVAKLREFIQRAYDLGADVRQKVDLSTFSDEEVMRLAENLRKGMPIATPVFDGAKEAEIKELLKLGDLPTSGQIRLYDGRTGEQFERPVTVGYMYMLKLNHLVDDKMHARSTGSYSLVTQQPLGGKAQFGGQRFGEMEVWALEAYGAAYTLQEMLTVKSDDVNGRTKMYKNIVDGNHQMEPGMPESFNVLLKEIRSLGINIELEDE

In the case of `CO[C@H]1/C=C/O[C@@]2(C)Oc3c(C)c(O)c4c(O)c(cc(O)c4c3C2=O)NC(=O)/C(C)=C\C=C\[C@H](C)[C@H](O)[C@@H](C)[C@@H](O)[C@@H](C)[C@H](OC(C)=O)[C@@H]1C` [CB-01-11], the IC50 [1] is reported as 0.03 µM and 0.02 µM, the IC50 [2] is reported as greater than 100 µM and the IC50 [3] is reported as 80 µM. The IC50 [4] was 70 µM.
For `CC(C)Cc1nnc2c(C(=O)NC3c4ccccc4-c4ccccc43)cccn12` [MRL-436], the IC50 [1] was 2 µM and 3 µM, the IC50 [2] was 3 µM and the IC50 [3] was 4 µM. It also gave an IC50 [4] of 4 µM.
